Data set [1] is described as follows: Inhibition of BMP6-stimulated hepcidin production in human HepG2 cells.
The target in data set [2] is Dual specificity tyrosine-phosphorylation-regulated kinase 1B (Homo sapiens) (UniProt Q9Y463). In words: Inhibition of DYRK1b (unknown origin) at 0.5 uM.
The target of data set [3] is Dual specificity protein kinase CLK2 (Homo sapiens) (UniProt P49760). Kind of data set: Inhibition of CLK2 (unknown origin) at 0.5 uM.
The target in data set [4] is Dual specificity tyrosine-phosphorylation-regulated kinase 1A (Homo sapiens, UniProt Q13627). Kind of data set: Inhibition of DYRK1a (unknown origin).
Data set [5] in a line: Cmax in C57BL/6J mouse at 30 mg/kg, po. The data set is classed as ADME, organism-based. Also noted: route oral, dose 30 mg/kg. The settings on record: in vivo.
The nature of data set [6]: Half life in C57BL/6J mouse at 30 mg/kg, po. The data set is classed as ADME, organism-based. To be noted: in vivo.
In the next data set the test system is Mus musculus. In words: Inhibition of IL6-induced hepcidin production in C57BL/6J mouse serum at 30 mg/kg, po administered 30 mins prior to IL6 challenge and measured after 4 hrs. The settings on record: time 270.0 min. The data set is classed as functional, organism-based.
Data set [7] is described as follows: AUC in C57BL/6J mouse at 30 mg/kg, po. The data set is classed as ADME, organism-based. Also noted: dose 30 mg/kg. The settings on record: in vivo.
The nature of data set [8]: Tmax in C57BL/6J mouse at 30 mg/kg, po. The settings on record: in vivo. The data set is classed as ADME, organism-based.
For data set [9], the target named is T1, Activin receptor type-1 (Homo sapiens) (UniProt Q04771).
T1 sequence (whole entry): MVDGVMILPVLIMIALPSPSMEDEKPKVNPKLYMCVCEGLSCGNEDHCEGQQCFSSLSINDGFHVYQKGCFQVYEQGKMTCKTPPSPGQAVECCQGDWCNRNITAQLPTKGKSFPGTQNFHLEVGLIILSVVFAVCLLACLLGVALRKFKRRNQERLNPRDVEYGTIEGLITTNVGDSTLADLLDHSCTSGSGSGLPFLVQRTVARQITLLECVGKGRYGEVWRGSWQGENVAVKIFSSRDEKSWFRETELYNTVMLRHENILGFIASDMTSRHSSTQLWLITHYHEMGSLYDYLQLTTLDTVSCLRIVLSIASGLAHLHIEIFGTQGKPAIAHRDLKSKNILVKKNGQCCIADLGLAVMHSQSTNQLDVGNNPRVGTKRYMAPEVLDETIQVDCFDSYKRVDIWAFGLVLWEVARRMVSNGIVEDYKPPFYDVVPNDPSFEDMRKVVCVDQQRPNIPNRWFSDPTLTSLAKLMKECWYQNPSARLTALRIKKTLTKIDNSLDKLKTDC
Kind of data set: Inhibition of ALK2 (unknown origin) at 30 uM.

The nature of data set [10]: Clearance in C57BL/6J mouse at 30 mg/kg, po. The data set is classed as ADME, organism-based. The settings on record: in vivo.
Data set [11] is described as follows: Lipophilicity, logD of the compound. The data set is classed as physicochemical. The settings on record: octanol/water.
Data set [12] can be described thus: Protein binding in plasma (unknown origin) assessed as unbound fraction. The data set is classed as ADME, cell-free.

The source made the active and inactive calls. A value given as a limit tells only on which side of the number the result lay.

Chain of Dual specificity protein kinase CLK2 (Homo sapiens) (P49760 whole entry, looked up): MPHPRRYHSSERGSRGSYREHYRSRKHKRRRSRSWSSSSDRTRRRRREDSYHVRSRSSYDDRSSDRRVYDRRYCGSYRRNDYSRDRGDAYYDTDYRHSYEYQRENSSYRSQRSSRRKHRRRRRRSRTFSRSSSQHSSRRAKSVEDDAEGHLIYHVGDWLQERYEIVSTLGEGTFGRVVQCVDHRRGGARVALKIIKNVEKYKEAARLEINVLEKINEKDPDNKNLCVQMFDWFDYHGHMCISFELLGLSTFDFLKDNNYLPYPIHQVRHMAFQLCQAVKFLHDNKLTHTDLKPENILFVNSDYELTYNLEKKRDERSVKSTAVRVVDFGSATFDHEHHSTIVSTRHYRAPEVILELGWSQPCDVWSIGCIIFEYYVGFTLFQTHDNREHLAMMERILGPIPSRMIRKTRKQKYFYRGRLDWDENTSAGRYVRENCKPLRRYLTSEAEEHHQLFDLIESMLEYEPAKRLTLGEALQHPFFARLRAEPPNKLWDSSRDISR
Chain of Dual specificity tyrosine-phosphorylation-regulated kinase 1B (Homo sapiens) (Q9Y463 whole entry, looked up): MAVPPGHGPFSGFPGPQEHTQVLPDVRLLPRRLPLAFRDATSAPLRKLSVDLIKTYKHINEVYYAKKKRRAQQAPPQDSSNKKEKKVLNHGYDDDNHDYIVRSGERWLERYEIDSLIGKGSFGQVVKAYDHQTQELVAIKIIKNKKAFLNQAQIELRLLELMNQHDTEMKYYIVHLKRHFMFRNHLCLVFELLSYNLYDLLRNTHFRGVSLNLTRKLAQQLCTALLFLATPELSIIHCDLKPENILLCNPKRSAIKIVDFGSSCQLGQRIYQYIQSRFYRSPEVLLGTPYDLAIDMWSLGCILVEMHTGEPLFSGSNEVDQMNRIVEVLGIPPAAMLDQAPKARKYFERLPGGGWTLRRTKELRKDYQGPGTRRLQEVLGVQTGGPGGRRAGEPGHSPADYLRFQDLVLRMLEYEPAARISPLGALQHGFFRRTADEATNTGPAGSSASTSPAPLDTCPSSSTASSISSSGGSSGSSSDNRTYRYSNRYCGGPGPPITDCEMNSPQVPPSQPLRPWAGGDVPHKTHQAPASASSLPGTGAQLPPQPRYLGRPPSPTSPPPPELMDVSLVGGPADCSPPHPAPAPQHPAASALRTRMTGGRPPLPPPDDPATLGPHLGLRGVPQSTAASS

Consider `Cc1ccc2c(c1)CC(C)(C)c1c(N)ncnc1-2`, for which the half-maximal inhibitory concentration (IC50) (commonly the concentration at which inhibition is half-maximal) in data set [1] was 600 nM.

Take `C=C(c1ccc2c(c1)CC(C)(C)c1c(N)ncnc1-2)C12CC(C1)C2`: the IC50 in data set [1] stood at 120 nM.

`Cc1ccc2c(c1)-c1ncnc(N)c1C(C)(C)C2` showed an IC50 in data set [1] of 2800 nM.

For `CCOc1ccc2c(c1)CC(C)(C)c1c(N)ncnc1-2`, in [1], the IC50 amounted to 420 nM.

With `CC1(C)Cc2cc(-c3ccccc3)ccc2-c2ncnc(N)c21`, the concentration for half-maximal inhibition (IC50) in [1] turned out to be 1500 nM. Against the preceding compound, the IC50 is about 3.6-fold higher.

In data set [1], `COc1ccc2c(c1)CC(C)(C)c1c(N)nc(C)nc1-2` registered an IC50 of more than 5000 nM.

Turning to `Cc1cccc2c1CC(C)(C)c1c(N)ncnc1-2`, half-maximal inhibition in data set [1] (IC50) required 5000 nM.

Consider `COC(=O)c1ccc2c(c1)CC(C)(C)c1c(N)ncnc1-2`, for which the concentration for half-maximal inhibition (IC50) in data set [1] stood at 11000 nM.

For the compound `CC1(C)Cc2ccccc2-c2ncnc(N)c21`, in data set [1], the IC50 was 4500 nM.

For the compound `CC1(C)Cc2cc(C(=O)C3CCNCC3)ccc2-c2ncnc(N)c21`, inhibition in data set [1] was half-maximal at 300 nM (IC50). Against the preceding compound, the IC50 is about 15-fold lower.

As for `Oc1ncnc2c1C1(CCCC1)Cc1ccccc1-2`, the IC50 in data set [1] was more than 30000 nM.

`CC(c1ccc2c(c1)CC(C)(C)c1c(N)ncnc1-2)C1CCNCC1` (racemic) showed an IC50 in data set [1] of 73 nM.

`COc1ccc2c(c1)CC(C)(C)c1c-2noc1N`: the concentration for half-maximal inhibition (IC50) in data set [1] was more than 30000 nM.

In the case of `C=C(c1ccc2c(c1)CC(C)(C)c1c(N)ncnc1-2)[C@H]1CC[C@H](N(C)C)CC1`, in data set [1], the IC50 turned out to be 110 nM. In other words, the sub-micromolar range.

On to `CC(=O)N1CCC(Oc2ccc3c(c2)CC(C)(C)c2c(N)ncnc2-3)CC1`, for which, in data set [1], the IC50 is 760 nM.

`C=C(c1ccc2c(c1)CC(C)(C)c1c(N)ncnc1-2)[C@H]1CC[C@H](NC)CC1`: in data set [1], inhibition was half-maximal at 45 nM (IC50).

`COc1ccc2c(c1)CC(C)(C)c1c(N)ncnc1-2` showed an IC50 in data set [1] of 530 nM. Besides, the inhibition entry in data set [2] and in [3] was “Active” throughout.

For the compound `Nc1ncnc2c1CCc1ccccc1-2`, the IC50 in [1] was more than 30000 nM; in data set [4], 57000 nM.

`CC1(C)Cc2cc(OC3CCNC3)ccc2-c2ncnc(N)c21` (configuration not stated): the IC50 in data set [1] came out at 180 nM.

The compound `C=C(c1ccc2c(c1)CC(C)(C)c1c(N)ncnc1-2)[C@H]1CCC[C@H](N)C1` returned an IC50 in data set [1] of 42 nM.

`CC1(C)Cc2cc(OCC(=O)O)ccc2-c2ncnc(N)c21` showed an IC50 in [1] of 11000 nM.

As to `C=C(c1ccc2c(c1)CC(C)(C)c1c(N)ncnc1-2)[C@H]1C[C@H](N)C1`, the half-maximal inhibitory concentration (IC50) in [1] came to 31 nM.

The compound `Nc1ncnc2c1C1(CCCC1)Cc1ccccc1-2` showed a 50% inhibitory concentration (IC50) in data set [1] of 4200 nM.

In data set [1], `CNc1ncnc2c1C1(CCCC1)Cc1ccccc1-2` displayed an IC50 of more than 30000 nM.

The compound `CC1(C)Cc2cc(OC3CCCNCC3)ccc2-c2ncnc(N)c21` (configuration not stated) displayed an IC50 in [1] of 240 nM.

In the case of `COc1ccc2c(c1)CC(C)(C)c1c(N)n[nH]c1-2`, in data set [1], the half-inhibitory concentration (IC50) is more than 30000 nM.

`C=C(c1ccc2c(c1)CC(C)(C)c1c(N)ncnc1-2)[C@H]1CC[C@H](N)CC1` came in with an IC50 in [1] of 32 nM. Besides, in [5], the Cmax (commonly the maximum level reached in the sampled fluid or tissue) was found to be 610 ng/mL. Further, in [6], the half-life (in general, the time needed for the level to fall by half in the phase considered) is 4.59 h. Moreover, the inhibition result in the data set with Mus musculus is “Active”. Also, the AUC (commonly concentration integrated over time) in [7] is 2580 ng·h/mL. Moreover, the Tmax – broadly, the time from dosing to the highest level – in data set [8] stood at 1.17 h. Also, the inhibition result in [9] was “inactive”. In data set [10], the apparent clearance CL/F (as a rule, the apparent clearance, not corrected for the fraction that reaches the circulation) was found to be 191 mL/min/kg. Besides, the pH-dependent lipophilicity (logD) (commonly the decadic logarithm of the distribution of all forms, ionised or not, between an organic phase and buffer at a given pH) in data set [11] stood at 1.6. In addition, the fraction unbound (commonly the share of the substance not bound to proteins or other matrix) in [12] was 0.065.

With `CC1(C)Cc2cc(C3CCNCC3)ccc2-c2ncnc(N)c21`, the IC50 in data set [1] was determined as 810 nM.

The compound `CN(C)c1ncnc2c1C1(CCCC1)Cc1ccccc1-2` had an IC50 in data set [1] of more than 30000 nM.

The compound `CC(C)Oc1ccc2c(c1)CC(C)(C)c1c(N)ncnc1-2` returned an IC50 in [1] of 490 nM.

In data set [1], `CC1(C)Cc2cc(OC3CCNCC3)ccc2-c2ncnc(N)c21` displayed an IC50 of 230 nM.

Turning to `CC1(C)Cc2cc(OCCO)ccc2-c2ncnc(N)c21`, the IC50 in data set [1] is 1100 nM.

In data set [1], `C=C(c1ccc2c(c1)CC(C)(C)c1c(N)ncnc1-2)C1CCNCC1` registered an IC50 of 21 nM.

Regarding `Cc1cccc2c1-c1ncnc(N)c1C(C)(C)C2`, the IC50 in data set [1] was determined as 4700 nM.

As for `c1ccc2c(c1)CC1(CCCC1)c1cncnc1-2`, the IC50 in data set [1] was more than 30000 nM.

Values taken from ChEMBL document CHEMBL4673215, “Discovery of DS42450411 as a potent orally active hepcidin production inhibitor: Design and optimization of novel 4-aminopyrimidine derivatives” (Bioorg Med Chem Lett, 2018).
